{
  "source": "patent US20040019092A1",
  "about": "“Non-peptide somatostatin receptor ligands” (priority 2001, published 2004)",
  "key": {"GH secretion": {"tested_on": "GH secretion", "test": "Unanesthetized estradiol primed male rats, oral by gavage: GH", "assay_type": "in vivo, rat", "conditions": "estradiol implant male rats, oral by gavage, 1 hour", "experimental": "The inhibitory effect of the compounds on GH release may also be examined after oral application to male rats with oestradiol implants. This test is carried out as follows.\nA loop (length 50 mmØ3 mm) of silastic with 50 mg of oestradiol is implanted under the dorsal skin of anaesthetized male OFA rats that have a weight of ca. 300 g. At various times (1 to 6 months later), these animals, in a fasted state, are used repeatedly for tests. The test substances are active in this test at doses from 0.1 to 5 mg/kg, when GH level in the blood serum is determined by radio-immunoassay 1 and 2 hours after oral administration.\n(§1) Table 5 summarizes the results obtained in the estradiol primed male rats that received the compounds orally by gavage. These rats have stabilized elevated GH plasma levels as well as increased prolactin levels. In contrast to normal untreated rats, who's prolactin secretion is not sensitive to the inhibitory effect of somatostain, in these rats the prolactin secretion is inhibited to a similar degree as the GH secretion. Therefore, the inhibitory effect can be measured on 2 different parameters, GH and prolactin. The mean enteral absorption and activity of the respective compounds are shown."}, "prolactin secretion": {"tested_on": "prolactin secretion", "test": "Unanesthetized estradiol primed male rats, oral by gavage: prolactin", "assay_type": "in vivo, rat", "conditions": "estradiol implant male rats, oral by gavage, 1 hour; ø = no effect at this dose", "excerpt": "as §1"}, "[1]": {"tested_on": "basal plasma levels of growth hormone, glucagon, insulin and glucose", "test": "Endocrine parameters in the Rhesus monkey after subcutaneous administration", "assay_type": "in vivo", "experimental": "Therefore, they were further investigated in the Rhesus monkey and their activity profile was determined. Using subcutaneous administration, they were characterized in this species, by measuring their effects on the basal plasma levels of growth hormone, glucagon, insulin as well changes in glucose levels.\nAnimals and blood sampling: Rhesus monkeys, fed on the previous day in the morning with fruits only, were placed, slightly anesthetized with ketamin (Ketalar©, Parke-Davis), in primate chairs and brought to the experimental room. A catheter, consisting of an in-dwelling cannula (Vasocan Braunüle, 20G, B. Braun Melsungen AG, D-Melsungen), an extension line made from PP 800/110/260/100 Portex© tubing and a special adapter between cannula and tubing with a minimal void volume, was placed in a saphenic vein. The total volume of this catheter was approximately 0.7 mL. The distal end was placed through a hole in the wall to the adjacent room in order to allow infusion and blood sampling without being noticed by the animal. The animals were monitored with a video system.\nDuring the entire duration of the experiment an infusion of 5 to 10 mL/h of isotonic saline (NaCl 0.9% Braun, B. Braun Medical AG, CH-Emmenbrücke) containing heparin sodium 80 mg/L (Biochemie GMBH, A-Kundl) was maintained, using a roller pump (Vario-Perpex, Guldener, CH-Zürich). At each sampling time 1.5 mL (twice the void volume of the catheter) was taken in one syringe before collecting the actual blood sample of 2 mL in another syringe. The first 1.5 mL were reinfused immediately after the actual sample had been taken. The sample was mixed with 0.1 mL of a mixture containing EDTA (ethlenediaminetetraacetic acid tetrasodium Fluka, CH-Buchs) and aprotinin (Trasylol©, Bayer) resulting in final concentrations of 1.8 mg/mL and 1000 KIE/mL, respectively. The blood samples were kept on ice and spun in a cooled centrifuge. […]\nDeterminations: The blood levels of the hormones were determined by radioimmunoassay (RIA) using the appropriate antisera, antibodies, labels and standards, glucose by an enzymatic assay: […]"}, "[2]": {"test": "Brain penetration in rat after 48-hour intravenous infusion", "assay_type": "in vivo", "conditions": "rats; for concentration at 48 h / Kp at 48 h: male, rat, iv, 100 μg/h; for Kp at 48 h: brain/whole blood", "experimental": "The in vivo brain penetration of compound 42 after a 48-hour intravenous infusion was assessed. [^14C]-42-ch was intravenously administered to 5 male rats at a loading dose of 0.3 mg(-b)/rat and then infused at a constant rate of 100 μg(-b)/h for 48 hours using a syringe pump connected to the femoral vein. Immediately after stopping the infusion, the rats were sacrificed. Blood and brain were collected and analyzed for total radioactivity and unchanged compound 42."}, "[3]": {"test": "Plasma protein binding, equilibrium dialysis, rat plasma", "assay_type": "in vitro ADME", "experimental": "In vitro blood distribution and plasma protein binding. For blood distribution studies, fresh, heparinized rat blood (n=3) was spiked with [^14C]-42 to achieve the final concentrations of 5, 50, 500 and 5000 ng/mL. After a 30-minutes incubation at 4° C., 22° C. and 37° C., the samples were centrifuged (1600×g, 10 minutes, at the incubation temperature) to get plasma. The fraction free of 42 in plasma of rat and human was determined by equilibrium dialysis. Phosphate buffer was spiked with [^14C]-42 (50, 500, 5000 ng/mL) and dialyzed versus blank rat and human plasma at 37° C. for 2 hours. The radioactivity was determined in spiked blood samples, in plasma obtained after centrifugation and in both compartments after dialysis."}, "[4]": {"conditions": "48 hours i.v. infusion 100 μg/h"}},
  "note": "Where “and” joins values, the source holds several entries; their conditions need not be identical. Equal values may be shown once. Read-outs that look alike come from different tables or passages of the source.",
  "data": [
    {"smiles": "Cc1cccc2c(CC3C(=O)N(CCCCCN)C(=O)N3S(=O)(=O)c3ccc(Oc4ccc(O)cc4)c(CN)c3)c[nH]c12", "note": "(centres unmarked) [Compound 45]", "values": [
      {"measurement": "GH 1 H ID50", "setting": "GH secretion", "result": 8, "unit": "mg/kg"},
      {"measurement": "MEAN ID50 (GH and prolactin)", "setting": "GH secretion", "result": 11.313, "unit": "mg/kg"},
      {"measurement": "PROLACT 1 H ID50", "setting": "prolactin secretion", "result": 16, "unit": "mg/kg"},
      {"measurement": "dose levels necessary for inhibition of hormone release, times higher than Octreotride", "setting": "[1]", "result": "about 100 times"}
    ]},
    {"smiles": "Cc1cccc2c(CC3C(=O)N(CCCCCN)C(=O)N3S(=O)(=O)c3ccc(Oc4ccc(O)c(Cl)c4)c(C#N)c3)c[nH]c12", "note": "(centres unmarked) [Compound 44]", "values": [
      {"measurement": "GH 1 H ID50", "setting": "GH secretion", "result": 16, "unit": "mg/kg"},
      {"measurement": "MEAN ID50 (GH and prolactin)", "setting": "GH secretion", "result": 16, "unit": "mg/kg"},
      {"measurement": "PROLACT 1 H ID50", "setting": "prolactin secretion", "result": "ø10000 μg/kg"},
      {"measurement": "inhibitory effects on hormone release", "setting": "[1]; up to 1100 μg/kg", "result": "no consistent inhibitory effects"}
    ]},
    {"smiles": "N#Cc1cc(S(=O)(=O)N2C(=O)N(CCCCCN)C(=O)C2Cc2c[nH]c3ccccc23)ccc1Oc1ccc(N)cc1", "note": "(centres unmarked) [Compound 42]", "values": [
      {"measurement": "concentration at 48 h", "setting": "[2]; brain, 48 hours i.v. infusion 100 μg/h, read-out: Concentration in brain, MEAN ± SD", "result": "18 ± 7", "unit": "ng/g"},
      {"measurement": "Kp at 48 h", "setting": "[2]; 48 hours i.v. infusion 100 μg/h, read-out: Brain/Blood Ratio, MEAN ± SD", "result": "0.27 ± 0.07"},
      {"measurement": "Kp at 48 h", "setting": "[2]; 48 hours i.v. infusion 100 μg/h, read-out: Brain/Blood Ratio, individual animals", "result": 0.27},
      {"measurement": "concentration at 48 h", "setting": "[2]; whole blood, 48-hours i.v. infusion of 100 μg/h, read-out: blood concentration", "result": "66 ± 14", "unit": "ng/mL"},
      {"measurement": "concentration at 48 h", "setting": "[2]; whole blood, 48 hours i.v. infusion 100 μg/h, read-out: Concentration in blood, MEAN ± SD", "result": "66 ± 14", "unit": "ng/g"},
      {"measurement": "concentration at 48 h", "setting": "[2]; whole blood, 48 hours i.v. infusion 100 μg/h, read-out: Concentration in blood, individual animals", "result": 59, "unit": "ng/g"},
      {"measurement": "Brain/Blood Ratio, MEAN ± SD", "setting": "[2]; [4]", "result": "0.27 ± 0.07"},
      {"measurement": "Brain/Blood Ratio, individual animals", "setting": "[2]; [4]", "result": "0.27 and 0.38 and 0.21 and 0.22"},
      {"measurement": "Concentration in brain, MEAN ± SD", "setting": "[2]; [4]", "result": "18 ± 7", "unit": "ng/g"},
      {"measurement": "Concentration in brain, individual animals", "setting": "[2]; [4]", "result": "16 ng/g (2×) and 21 ng/g and 29 ng/g and 10 ng/g"},
      {"measurement": "binding to plasma proteins", "setting": "[3]", "result": 90, "unit": "%"},
      {"measurement": "fraction free in rat plasma", "setting": "[3]; 50-5000 ng/mL, 37° C.", "result": "10-12%"}
    ]}
  ]
}
